Paper PMC6940912, “Novel Drug-Like Somatostatin Receptor 4 Agonists are Potential Analgesics for Neuropathic Pain” (International Journal of Molecular Sciences, 2019)
pEC50: −log10 of the molar value.

What was measured:
Male NMRI mice [1] = tested on: Male NMRI mice; set-up: method as in PMID 16697366, PMID 12122501; settings: 10–100 µg/kg i.p. ref 15, 27; cited from earlier work
[2] = set-up: method as in PMID 30232095; settings: native peptide ref 9; cited from earlier work
sst4 receptor = target: T1, sst4 receptor (Homo sapiens, UniProt P31391); test: sst4 receptor-linked G-protein activation, [35S]GTPγS binding assay on membranes of sst4-expressing CHO cells; assay type: biochemical
T1 construct: expressed in transfected cells; host or cells: CHO cells
T1 sequence (P31391 whole entry): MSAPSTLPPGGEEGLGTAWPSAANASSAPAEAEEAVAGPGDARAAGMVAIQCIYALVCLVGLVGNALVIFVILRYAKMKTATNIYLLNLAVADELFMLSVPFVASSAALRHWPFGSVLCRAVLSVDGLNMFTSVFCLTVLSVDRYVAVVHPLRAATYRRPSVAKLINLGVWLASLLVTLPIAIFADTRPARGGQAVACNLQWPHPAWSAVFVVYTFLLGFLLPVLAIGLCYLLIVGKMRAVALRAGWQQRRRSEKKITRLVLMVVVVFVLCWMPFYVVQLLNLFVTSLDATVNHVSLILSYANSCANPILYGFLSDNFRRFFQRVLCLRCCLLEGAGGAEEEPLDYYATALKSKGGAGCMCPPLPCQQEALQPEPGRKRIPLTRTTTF
Experimental: Membrane fractions were prepared from CHO cells, which express the sst4 receptor, in Tris–ethylene glycol-bis(2-aminoethyl)tetraacetic acid (Tris–EGTA) buffer (50 mM Tris–HCl (Sigma, St. Louis, MO, USA), 1 mM EGTA (Sigma, St. Louis, MO, USA), 3 mM MgCl2 (Sigma, St. Louis, MO, USA), 100 mM NaCl (Sigma, St. Louis, MO, USA), pH 7.4, 10 μg of protein/sample). The fractions were incubated in the buffer containing 0.05 nM guanosine triphosphate (GTP) (BioChemica International Inc., Melbourne, Florida, USA), labeled on the gamma phosphate group with ^35S ([^35S]GTPγS) (Isotop Institute, Budapest, Hungary) and increasing concentrations (1 nM to 10 µM) of C1, C2, C3 and C4 compounds for 60 min at 30 °C, in the presence of 30 μM guanosine diphosphate (GDP) (Sigma, St. Louis, MO, USA). We determined the nonspecific binding in the presence of 10 μM unlabeled GTPγS and total binding in the absence of test compounds. Samples were filtrated through Whatman GF/B glass fiber filters using 48-well Slot Blot Manifold from Cleaver Scientific (Cleaver Scientific Ltd., Rugby, Warwickshire, United Kingdom). Filters were washed with ice-cold 50 mM Tris–HCl buffer (pH 7.4) and radioactivity was measured in a β-counter (PerkinElmer Inc., Waltham, MA, USA). The test-compound-induced G-protein activation was given as percentage over the specific [^35S]GTPγS binding detected in the absence of agonists.
(§1) In the sst4 receptor activation assay, all the compounds were dissolved in dimethyl sulfoxide (DMSO) (Szkarabeusz Ltd., Pécs, Hungary). The concentration of the stock solutions was 10 mM and was diluted with distilled water to reach the final concentrations. For the in vivo experiments, 1 mg of the compounds was rubbed dry in a braying mortar, suspended thoroughly in 1 mL 1.25% methylcellulose (MC) (Pharmacy of University of Pécs, Pécs, Hungary) solution and then dissolved in sterile bidistilled water to get a 1000 µg/mL stock solution freshly every experimental day. Most microsuspensions looked opalescent; they were shaken properly, sonicated, and further diluted with 1.25% MC to obtain the 25 µg/mL solution for oral administrations (0.2 mL/10 g body weight for the 500 µg/kg dose). The solutions were shaken and sonicated again directly before use. The vehicle was always 1.25% MC dissolved in sterile bidistilled water.

Male NMRI mice [3] = test: RTX-induced acute neurogenic inflammatory thermal allodynia and mechanical hyperalgesia; assay type: in vivo, mouse; settings: oral pretreatment 1 h before intraplantar RTX, printed dose 500 µg/kg
Experimental: The investigated compounds (500 µg/kg p.o.) or the vehicle were administered orally 1 h before the induction of the acute neurogenic inflammation by intraplantar RTX (Sigma, St. Louis, MO, USA) injection (20 µL, 0.1 µg/mL) into the right hindpaw. RTX evokes an acute neurogenic inflammatory reaction with the development of a rapid thermal allodynia, mainly due to peripheral sensitization mechanisms, and a later developing mechanical hyperalgesia due also to central sensitization. The nociceptive heat threshold was determined before (control) and 10, 20 and 30 min after RTX administration with an increasing-temperature hot plate (IITC Life Science, Woodland Hills, CA, USA). […] The mechanonociceptive threshold was measured with an electronic von Frey device (dynamic plantar aesthesiometer (DPA), Ugo Basile, Comerio, Italy) prior to RTX injection and 30, 60 and 90 min afterwards. The measurement at 30 min was performed immediately after the last heat threshold measurement. The experiment consisted of two separate series on consecutive days and the number of animals in the control group was six per day. Therefore, the control group contained 12 mice, and six and five mice were used in the C1- and C2-treated groups, respectively.
as §1
Male NMRI mice (8–12 weeks old) bred in the Laboratory Animal House of the Department of Pharmacology and Pharmacotherapy of the University of Pecs were kept in standard plastic cages at 24–25 °C, under a 12–12 h light–dark cycle and provided with standard rodent chow and water ad libitum. […]

Male NMRI mice [4] = test: Partial sciatic nerve ligation-induced chronic traumatic neuropathic mechanical hyperalgesia; assay type: in vivo, mouse
Experimental: After conditioning and two control mechanonociceptive measurements on 2 consecutive days, mice were anaesthetized by the combination of ketamine (100 mg/kg, i.p.) and xylazine (10 mg/kg, i.p.). Traumatic mononeuropathy was achieved by one-third to one-half part ligation of the right sciatic nerve. Significant decrease in the mechanical threshold develops 7 days after operation. The mechanonociceptive threshold of the plantar surface of the hindpaws was measured by DPA on the 7th postoperative day. The paw withdrawal threshold was obtained in grams (the maximal value was 10 g; ramp time of 4 s). The compounds (500 µg/kg) or the vehicle were administered orally on day 7, one hour before the repeated measurement. The experiment consisted of separate series on 3 consecutive days, and there were 2–3 vehicle-treated control animals in every series. Therefore, each group contained 8 mice.
as §1
Male NMRI mice (8–12 weeks old) bred in the Laboratory Animal House of the Department of Pharmacology and Pharmacotherapy of the University of Pecs were kept in standard plastic cages at 24–25 °C, under a 12–12 h light–dark cycle and provided with standard rodent chow and water ad libitum. All experimental procedures complied with the recommendations of the 1998/XXVIII Act of the Hungarian Parliament on Animal Protection and Consideration Decree of Scientific Procedures of Animal Experiments (63/2010) and were approved by the Ethics Committee on Animal Research of Pecs University according to the Ethical Codex of Animal Experiments; license was given (license No. BA1/35/55-50/2017). We made all efforts to minimize the number and suffering of the animals used in this study.

Ca2+ channel = test: Selectivity profile (Eurofins Cerep), radioligand binding; settings: 1 µM, % inhibition of binding of radiolabeled ligand
Experimental: (§2) The evaluation was performed by Eurofins Cerep (France). Compound binding was calculated as a % inhibition of the binding of a radioactively labeled ligand specific for each target. Enzyme inhibition effect was calculated as a % inhibition of control enzyme activity. Cellular agonist effect was calculated as a % of control response to a known reference agonist for each target, and cellular antagonist effect was calculated as a % inhibition of control reference agonist response for each target. In each experiment the respective reference compound was tested concurrently with Compound 1 [71, 72, 73, 74, 75, 76, 77, 78]. See in Supplementary Materials.

K+ channel hERG = target: T2, K+ channel hERG (Homo sapiens, UniProt Q12809); test: as above; settings: 1 µM, % inhibition of binding of radiolabeled ligand
T2 construct: Eurofins Cerep (contract assay)
Experimental: as §2

COX-2 = target: T3, COX-2 (Homo sapiens, UniProt P35354); test: Selectivity profile (Eurofins Cerep), enzyme inhibition; assay type: biochemical; settings: % inhibition of control enzyme activity, read-out: Enzymatic Activity (%)
T3 construct: Eurofins Cerep (contract assay)
T3 sequence (P35354 18-604): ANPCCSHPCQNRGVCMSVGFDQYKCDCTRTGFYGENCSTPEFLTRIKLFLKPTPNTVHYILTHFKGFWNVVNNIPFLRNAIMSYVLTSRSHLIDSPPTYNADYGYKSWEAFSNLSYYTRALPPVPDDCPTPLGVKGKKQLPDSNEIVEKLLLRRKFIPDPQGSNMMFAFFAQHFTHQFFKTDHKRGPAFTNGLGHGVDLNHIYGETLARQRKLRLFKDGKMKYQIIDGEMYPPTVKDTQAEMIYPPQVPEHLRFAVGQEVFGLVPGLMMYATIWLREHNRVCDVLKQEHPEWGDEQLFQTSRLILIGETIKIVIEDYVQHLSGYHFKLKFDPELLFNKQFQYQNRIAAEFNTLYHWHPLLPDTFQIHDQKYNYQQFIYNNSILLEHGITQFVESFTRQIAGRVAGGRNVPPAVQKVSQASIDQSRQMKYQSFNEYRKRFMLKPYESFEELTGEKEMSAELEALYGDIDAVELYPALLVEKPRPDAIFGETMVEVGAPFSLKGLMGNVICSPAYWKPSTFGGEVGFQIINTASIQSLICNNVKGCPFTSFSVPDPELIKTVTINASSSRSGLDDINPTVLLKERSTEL
Experimental: as §2

MAOA = target: T4, MAOA (Homo sapiens, UniProt P21397); test: as above; assay type: biochemical; settings: % inhibition of control enzyme activity, read-out: Enzymatic Activity (%)
T4 construct: Eurofins Cerep (contract assay)
T4 sequence (P21397 1-527): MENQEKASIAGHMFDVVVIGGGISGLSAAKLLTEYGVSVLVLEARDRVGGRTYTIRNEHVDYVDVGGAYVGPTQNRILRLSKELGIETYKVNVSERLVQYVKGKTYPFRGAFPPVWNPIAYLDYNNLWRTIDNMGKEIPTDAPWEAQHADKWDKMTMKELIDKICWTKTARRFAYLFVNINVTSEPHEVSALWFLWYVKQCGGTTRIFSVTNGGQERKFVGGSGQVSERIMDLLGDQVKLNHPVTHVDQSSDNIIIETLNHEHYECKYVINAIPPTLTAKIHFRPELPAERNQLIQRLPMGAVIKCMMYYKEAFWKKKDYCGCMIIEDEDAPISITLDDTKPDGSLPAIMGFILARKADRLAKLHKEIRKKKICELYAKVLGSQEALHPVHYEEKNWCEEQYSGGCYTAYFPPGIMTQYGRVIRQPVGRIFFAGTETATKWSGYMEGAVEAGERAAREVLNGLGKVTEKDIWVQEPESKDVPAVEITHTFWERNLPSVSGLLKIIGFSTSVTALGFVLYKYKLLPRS
Experimental: as §2

PDE3A = target: T5, PDE3A (Homo sapiens, UniProt Q14432); test: as above; assay type: biochemical; settings: % inhibition of control enzyme activity, read-out: Enzymatic Activity (%)
T5 construct: Eurofins Cerep (contract assay)
T5 sequence (Q14432 whole entry, species assumed): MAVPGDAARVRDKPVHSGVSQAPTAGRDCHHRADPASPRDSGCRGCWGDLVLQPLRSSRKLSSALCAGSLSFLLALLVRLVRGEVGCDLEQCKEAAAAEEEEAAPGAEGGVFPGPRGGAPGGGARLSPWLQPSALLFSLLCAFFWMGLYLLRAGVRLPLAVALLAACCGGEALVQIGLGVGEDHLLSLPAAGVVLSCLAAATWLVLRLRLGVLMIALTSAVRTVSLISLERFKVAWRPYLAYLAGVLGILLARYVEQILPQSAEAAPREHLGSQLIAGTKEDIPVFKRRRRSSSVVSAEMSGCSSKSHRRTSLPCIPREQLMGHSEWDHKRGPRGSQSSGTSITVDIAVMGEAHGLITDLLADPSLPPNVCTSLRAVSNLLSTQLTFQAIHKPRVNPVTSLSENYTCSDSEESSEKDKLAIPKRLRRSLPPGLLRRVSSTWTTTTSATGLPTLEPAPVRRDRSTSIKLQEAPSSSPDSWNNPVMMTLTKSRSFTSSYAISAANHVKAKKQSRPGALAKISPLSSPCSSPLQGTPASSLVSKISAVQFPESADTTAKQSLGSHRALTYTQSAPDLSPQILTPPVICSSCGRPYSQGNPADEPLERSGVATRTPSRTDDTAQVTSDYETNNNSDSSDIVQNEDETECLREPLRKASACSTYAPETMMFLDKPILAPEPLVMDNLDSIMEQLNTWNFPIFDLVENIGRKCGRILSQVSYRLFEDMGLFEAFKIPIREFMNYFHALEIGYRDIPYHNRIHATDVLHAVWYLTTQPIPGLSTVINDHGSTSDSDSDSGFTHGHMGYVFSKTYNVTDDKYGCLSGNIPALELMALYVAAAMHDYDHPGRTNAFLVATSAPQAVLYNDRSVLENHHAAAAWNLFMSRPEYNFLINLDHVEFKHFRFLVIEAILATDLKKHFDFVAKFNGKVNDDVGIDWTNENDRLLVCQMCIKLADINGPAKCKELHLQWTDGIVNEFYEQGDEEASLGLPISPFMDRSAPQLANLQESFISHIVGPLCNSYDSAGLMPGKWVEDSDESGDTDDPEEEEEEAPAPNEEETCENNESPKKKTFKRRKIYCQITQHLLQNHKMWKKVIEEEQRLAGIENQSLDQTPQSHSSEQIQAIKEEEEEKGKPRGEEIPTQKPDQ
Experimental: as §2

PDE4D2 = target: T6, PDE4D2 (Homo sapiens, UniProt Q08499); test: as above; assay type: biochemical; settings: % inhibition of control enzyme activity, read-out: Enzymatic Activity (%)
T6 construct: Eurofins Cerep (contract assay)
T6 sequence (Q08499 303-809 limits assumed): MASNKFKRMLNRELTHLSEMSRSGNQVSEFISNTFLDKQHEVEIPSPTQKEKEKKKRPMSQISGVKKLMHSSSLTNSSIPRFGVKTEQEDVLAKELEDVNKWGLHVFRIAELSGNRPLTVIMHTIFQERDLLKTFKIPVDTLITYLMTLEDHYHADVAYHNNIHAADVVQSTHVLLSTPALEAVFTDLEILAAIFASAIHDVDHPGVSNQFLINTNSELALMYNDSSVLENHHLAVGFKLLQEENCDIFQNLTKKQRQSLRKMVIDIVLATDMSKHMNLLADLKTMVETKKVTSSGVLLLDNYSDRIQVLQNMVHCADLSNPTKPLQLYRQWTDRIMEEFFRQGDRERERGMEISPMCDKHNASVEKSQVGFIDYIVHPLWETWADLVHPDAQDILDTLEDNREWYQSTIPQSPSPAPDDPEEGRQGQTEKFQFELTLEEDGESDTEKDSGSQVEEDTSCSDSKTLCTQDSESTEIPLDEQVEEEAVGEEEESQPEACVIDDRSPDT
Experimental: as §2

CB1 = target: T7, CB1 (Homo sapiens, UniProt P21554); test: Selectivity profile (Eurofins Cerep), cellular agonist/antagonist effect; assay type: cell-based; settings: 1 µM
T7 construct: Eurofins Cerep (contract assay)
T7 sequence (P21554 whole entry): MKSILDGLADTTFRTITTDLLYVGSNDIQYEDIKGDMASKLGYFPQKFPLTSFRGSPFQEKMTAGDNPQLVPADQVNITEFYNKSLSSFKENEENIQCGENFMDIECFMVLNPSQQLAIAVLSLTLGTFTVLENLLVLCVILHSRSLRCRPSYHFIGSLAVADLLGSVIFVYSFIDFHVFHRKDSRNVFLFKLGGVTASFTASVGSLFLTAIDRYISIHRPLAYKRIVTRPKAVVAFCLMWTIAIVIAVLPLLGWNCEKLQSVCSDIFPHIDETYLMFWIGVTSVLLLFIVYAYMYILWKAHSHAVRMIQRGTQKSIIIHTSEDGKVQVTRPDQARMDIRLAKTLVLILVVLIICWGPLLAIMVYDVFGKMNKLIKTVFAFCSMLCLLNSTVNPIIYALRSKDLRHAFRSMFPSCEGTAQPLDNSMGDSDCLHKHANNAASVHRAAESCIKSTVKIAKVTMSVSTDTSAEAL
Experimental: as §2

CB2 = target: T8, CB2 (Homo sapiens, UniProt P34972); test: as above; assay type: cell-based; settings: 1 µM
T8 construct: Eurofins Cerep (contract assay)
T8 sequence (P34972 whole entry): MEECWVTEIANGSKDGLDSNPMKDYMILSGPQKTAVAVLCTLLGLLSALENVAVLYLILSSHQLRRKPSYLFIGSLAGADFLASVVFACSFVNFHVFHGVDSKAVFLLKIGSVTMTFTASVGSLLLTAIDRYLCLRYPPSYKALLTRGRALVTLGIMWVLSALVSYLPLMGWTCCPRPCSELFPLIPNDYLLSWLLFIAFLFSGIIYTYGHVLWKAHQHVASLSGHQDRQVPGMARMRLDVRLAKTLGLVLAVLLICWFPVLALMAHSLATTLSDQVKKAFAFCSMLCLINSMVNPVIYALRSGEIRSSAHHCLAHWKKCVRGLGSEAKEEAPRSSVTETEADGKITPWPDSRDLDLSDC
Experimental: as §2

D1 = target: T9, D1 (Homo sapiens, UniProt P21728); test: as above; assay type: cell-based; settings: 1 µM
T9 construct: Eurofins Cerep (contract assay)
T9 sequence (P21728 whole entry): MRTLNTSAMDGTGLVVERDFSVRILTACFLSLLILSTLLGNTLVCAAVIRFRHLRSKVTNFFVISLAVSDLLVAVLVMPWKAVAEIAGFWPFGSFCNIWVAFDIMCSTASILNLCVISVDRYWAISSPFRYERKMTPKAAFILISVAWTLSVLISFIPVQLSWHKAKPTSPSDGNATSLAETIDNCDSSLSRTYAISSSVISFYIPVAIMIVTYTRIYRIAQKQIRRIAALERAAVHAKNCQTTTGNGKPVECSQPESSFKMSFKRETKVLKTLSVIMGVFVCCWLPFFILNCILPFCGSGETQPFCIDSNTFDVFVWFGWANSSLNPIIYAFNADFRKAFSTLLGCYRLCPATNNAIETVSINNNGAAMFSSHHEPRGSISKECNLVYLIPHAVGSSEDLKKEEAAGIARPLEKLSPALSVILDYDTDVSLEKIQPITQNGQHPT
Experimental: as §2

D2S = target: T10, D2S (Homo sapiens, UniProt P14416); test: as above; assay type: cell-based; settings: 1 µM
T10 construct: Eurofins Cerep (contract assay)
T10 sequence (P14416 1-414 isoform P14416-2): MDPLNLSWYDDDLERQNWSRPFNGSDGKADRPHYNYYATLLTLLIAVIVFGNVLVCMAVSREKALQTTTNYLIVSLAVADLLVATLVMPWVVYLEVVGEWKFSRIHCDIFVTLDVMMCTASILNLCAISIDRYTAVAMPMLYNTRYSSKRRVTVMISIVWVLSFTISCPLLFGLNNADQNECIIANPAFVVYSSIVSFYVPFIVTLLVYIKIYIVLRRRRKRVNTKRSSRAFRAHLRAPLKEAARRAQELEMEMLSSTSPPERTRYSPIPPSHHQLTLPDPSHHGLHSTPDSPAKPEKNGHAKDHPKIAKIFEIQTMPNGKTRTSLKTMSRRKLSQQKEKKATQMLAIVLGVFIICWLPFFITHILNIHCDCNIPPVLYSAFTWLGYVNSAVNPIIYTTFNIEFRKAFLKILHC
Experimental: as §2

Delta (DOP) = target: T11, Delta (DOP) (Homo sapiens, UniProt P41143); test: as above; assay type: cell-based; settings: 1 µM
T11 construct: Eurofins Cerep (contract assay)
T11 sequence (P41143 whole entry): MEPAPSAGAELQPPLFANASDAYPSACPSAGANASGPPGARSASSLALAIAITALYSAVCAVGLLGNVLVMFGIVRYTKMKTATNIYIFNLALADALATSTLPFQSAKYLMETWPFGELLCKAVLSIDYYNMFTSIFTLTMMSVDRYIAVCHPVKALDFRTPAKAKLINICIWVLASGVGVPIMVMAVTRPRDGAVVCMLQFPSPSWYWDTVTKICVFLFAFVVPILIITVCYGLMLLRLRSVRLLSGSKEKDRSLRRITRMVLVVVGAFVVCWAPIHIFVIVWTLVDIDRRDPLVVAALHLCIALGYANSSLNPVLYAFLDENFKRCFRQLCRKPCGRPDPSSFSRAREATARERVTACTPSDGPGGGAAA
Experimental: as §2

Kappa (KOP) = target: T12, Kappa (KOP) (Homo sapiens, UniProt P41145); test: as above; assay type: cell-based; settings: 1 µM
T12 construct: Eurofins Cerep (contract assay)
T12 sequence (P41145 whole entry): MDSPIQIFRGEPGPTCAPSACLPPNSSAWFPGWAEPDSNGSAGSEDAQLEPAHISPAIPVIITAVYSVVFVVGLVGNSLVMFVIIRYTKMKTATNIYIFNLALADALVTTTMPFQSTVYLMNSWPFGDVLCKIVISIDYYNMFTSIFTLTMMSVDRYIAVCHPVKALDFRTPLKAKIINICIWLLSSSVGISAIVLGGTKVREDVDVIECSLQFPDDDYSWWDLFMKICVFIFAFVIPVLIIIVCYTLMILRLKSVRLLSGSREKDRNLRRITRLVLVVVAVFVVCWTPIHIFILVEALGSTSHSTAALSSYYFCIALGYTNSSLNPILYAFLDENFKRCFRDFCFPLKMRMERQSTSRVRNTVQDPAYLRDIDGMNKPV
Experimental: as §2

Mu (MOP) = target: T13, Mu (MOP) (Homo sapiens, UniProt P35372); test: as above; assay type: cell-based; settings: 1 µM
T13 construct: Eurofins Cerep (contract assay)
T13 sequence (P35372 whole entry): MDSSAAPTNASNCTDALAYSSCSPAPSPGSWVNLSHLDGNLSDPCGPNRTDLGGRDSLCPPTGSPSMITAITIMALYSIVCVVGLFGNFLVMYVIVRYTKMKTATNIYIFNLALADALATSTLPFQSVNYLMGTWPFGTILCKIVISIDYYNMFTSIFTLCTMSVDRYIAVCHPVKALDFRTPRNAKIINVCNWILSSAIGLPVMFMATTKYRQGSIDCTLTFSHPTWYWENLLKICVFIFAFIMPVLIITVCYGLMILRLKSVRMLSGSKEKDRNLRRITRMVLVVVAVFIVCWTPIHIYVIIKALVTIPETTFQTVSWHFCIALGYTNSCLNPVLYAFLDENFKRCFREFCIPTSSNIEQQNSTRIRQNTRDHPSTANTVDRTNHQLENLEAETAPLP
Experimental: as §2

[5] = day 7 after sciatic nerve ligation, 500 µg/kg oral, 1 h later, n = 8
[6] = day 7 after sciatic nerve ligation, pretreatment self-control, n = 8
[7] = % inhibition of control reference agonist response
[8] = % of control response to reference agonist

Question: For `Cc1ccc(S(=O)(=O)N[C@@H](CCN)C(=O)N[C@@H](Cc2ccccc2)C(N)=O)c2ccccc12` [Compound J-2156], which “Analgesic effect in partial sciatic nerve ligation model” value (Male NMRI mice [1]) is on record?
Answer: potent and dose-dependent analgesic effects

Question: Which Elimination half-life [2] does the source give for “somatostatin: native peptide released from capsaicin-sensitive sensory nerve terminals” here?
Answer: < 3 min

Question: What does the source list for `c1ccc(CCNc2ncnc3c2ccn3Cc2ccccc2)cc1` [Compound 1, (7-Benzyl-7H-pyrrolo[2,3-d]pyrimidin-4-yl)-phenethyl-amine]?
Answer: pEC50 (sst4 receptor; 1 nM to 10 µM, n = 3): 7.43; Emax (sst4 receptor; [35S]GTPγS binding, mean ± SEM, n = 3, read-out: Maximal activation over the basal activity of the receptor (efficacy)): 218%; Effect on acute neurogenic inflammatory heat hyperalgesia (Male NMRI mice [3]; at 10 and 30 min): significantly decreased; Effect on RTX-induced mechanical hyperalgesia (Male NMRI mice [3]; at 30 min): significantly decreased; Mechanonociceptive threshold of operated limb, 1 h after treatment (Male NMRI mice [4]; [5]): 8.53 ± 0.37 g; Neuropathic mechanical hyperalgesia, 1 h after treatment (Male NMRI mice [4]; [5]): 9.98% ± 3.92; Mechanonociceptive threshold of operated limb, before treatment (Male NMRI mice [4]; [6]): 6.51 ± 0.18 g; Neuropathic mechanical hyperalgesia, before treatment (Male NMRI mice [4]; [6]): 31.22% ± 2.11; Anti-hyperalgesic effect on neuropathic mechanical hyperalgesia (Male NMRI mice [4]; traumatic nerve injury, single oral 500 µg/kg): approximately 70%; Inhibition of radioligand binding (Ca2+ channel): 19.4%; Inhibition of radioligand binding (%) (K+ channel hERG): 23.6%; inhibition at 1 µM (COX-2): -10.4%; inhibition at 1 µM (MAOA): 2.7%; inhibition at 1 µM (PDE3A): -15%; inhibition at 1 µM (PDE4D2): -0.6%; Antagonist Effect (%) (CB1; [7]): −1.5%; Agonist Effect (%) (CB1; [8]): 30.8%; Antagonist Effect (%) (CB2; [7]): 7.7%; Agonist Effect (%) (CB2; [8]): 58.9%; Antagonist Effect (%) (D1; [7]): −10%; Agonist Effect (%) (D1; [8]): 3.3%; Antagonist Effect (%) (D2S; [7]): −11.5%; Agonist Effect (%) (D2S; [8]): 17.2%; Antagonist Effect (%) (Delta (DOP); [7]): −1.4%; Agonist Effect (%) (Delta (DOP); [8]): −0.3%; Antagonist Effect (%) (Kappa (KOP); [7]): 23.6%; Agonist Effect (%) (Kappa (KOP); [8]): −1.5%; Antagonist Effect (%) (Mu (MOP); [7]): 20.2%; Agonist Effect (%) (Mu (MOP); [8]): 5.5%
